Source: patent publication US12534439B2, “Xanthohumol derivatives and methods for making and using” (Oregon State University, priority 2021, dated 2026)

Legend:
C2Cl2 cells = assay: JC-1 mitochondrial membrane potential assay; format: cell-based, murine; settings: compared with FCCP
Procedure: Mitochondrial respiration is coupled to ATP synthesis through an electrochemical proton gradient. Proton leak across the inner membrane results in depolarization of the mitochondrial transmembrane without deleteriously lowering the ATP synthesis. Proton leak can be mediated by UCPs and leads to the dissipation of the energy derived from substrate oxidation as heat. Considering the XP and XN effect on EE, the thermogenic activity was evaluated by assessing changes in UCP1 protein expression in the skeletal muscle, BAT, and WAT of HFD-fed mice. Unexpectedly, XP had no effect in UCP1 in the skeletal muscle, BAT, or WAT of HFD-fed mice (FIG. 18A). […] Therefore, the XP intrinsic protonophore properties were investigated by measured variations of mitochondrial membrane potential (ΔψM) in C2Cl2 cells stained with JC-1 dye. […]
Measure of Metabolic Activity. […] Metabolic measurements such as EE and respiratory exchange […] (calculated from the ratio of CO2 volume produced and O2 volume consumed) were measured. Motor activity and food intake were also recorded. […] JC-1 aggregates were detected with excitation and emission wavelengths of 540 and 570 nm. JC-1 monomers were detected with excitation and emission wavelengths of 485 and 535 nm on a BioTek Synergy HT plate reader.

UCP1 = assay: Western blotting of UCP1 in skeletal muscle, BAT and WAT; format: in vivo; settings: HFD-fed mice, versus control
Procedure: Western Blotting. Approximately 100 mg of frozen BAT and WAT was homogenized in RIPA buffer with protease and phosphatase inhibitors (Santa Cruz Biotechnology, Dallas, TX, USA). Tissues were sonicated for 30 seconds, and the homogenates were centrifuged at 15700 g for 10 minutes to collect the supernatants. Protein (30 μg) was separated by SDS-PAGE using 4-15% MP TGX Gels (Bio-Rad, Hercules, CA, USA) and blotted onto nitrocellulose membranes. The membranes were blocked with 5% nonfat milk for 90 minutes and incubated with antibodies against GAPDH (#0411, Santa Cruz Biotechnology, Dallas, TX, USA) or UCP1 (#10983, Genetex, Irvine, CA, USA) for 60 minutes. After a second reaction with secondary antibodies (horseradish peroxidase-conjugated IgG antibodies), the protein bands on the nitrocellulose membranes were visualized by enhanced chemiluminescence substrate on an electrochemical luminescence (ECL) imager (Thermo Fisher Scientific, Waltham, MA, USA). Band intensities were quantified by densitometry using Image J software.

HFD-fed C57BL/6J mice = assay: Metabolic cages: indirect calorimetry, energy expenditure, motor activity; format: in vivo; settings: for All movements (direct locomotion and fine movements) versus control: three dark and two light cycles; for Mean respiratory exchange ratio (RER) versus control: week 6; for Increase of mean energy expenditure (EE): week 6, normalized on body weight, dark and light cycles
Procedure: Measure of Metabolic Activity. Metabolic determinations were performed at week 6, with four mice from each treatment group housed in Promethion metabolic cages (Sable Systems, Las Vegas, NV, USA). The indirect calorimetry system consists of metabolic cages identical to regular cages with bedding, each equipped with food hoppers connected to load cells for food intake monitoring. Prior to data collection, all mice were acclimated to the cages for 8 hours. A standard 12 hours light/dark cycle was maintained throughout the calorimetry studies, and data was collected over three dark cycles and two light cycles. Metabolic measurements such as EE and respiratory exchange […] (calculated from the ratio of CO2 volume produced and O2 volume consumed) were measured. Motor activity and food intake were also recorded. JC-1 Mitochondrial Membrane Potential Assay. C2Cl2 cells were seeded in 96-well plates at 1×10^4 cells/mL. After 24 hours, the culture medium was replaced with fresh medium containing carbonyl cyanide p-(trifluoromethoxy) phenylhydrazone (FCCP) from Sigma-Aldrich (St Louis, MO, USA), XP, XN, or DMSO vehicle. Cells were incubated in the presence of the treatments for 1 h and 5,5′,6,6′-tetrachloro-1,1′,3,3′-tetraethylbenzimidazolylcarbocyanine iodide (JC-1) dye was added to each well following the manufacturer's protocol (Cayman Chemical, Ann Arbor, MI, USA). JC-1 aggregates were detected with excitation and emission wavelengths of 540 and 570 nm. JC-1 monomers were detected with excitation and emission wavelengths of 485 and 535 nm on a BioTek Synergy HT plate reader.

Row | Structure (SMILES) | Effect on JC-1 aggregates/monomers ratio (C2Cl2 cells) | UCP1 protein expression in WAT (UCP1) | UCP1 protein expression in skeletal muscle and BAT (UCP1) | Locomotor movement increased versus control (HFD-fed C57BL/6J mice; p=0.06) | All movements (direct locomotion and fine movements) versus control (HFD-fed C57BL/6J mice) | Mean respiratory exchange ratio (RER) versus control (HFD-fed C57BL/6J mice) | Increase of mean energy expenditure (EE) (HFD-fed C57BL/6J mice; versus control) | UCP1 protein expression in skeletal muscle, BAT, or WAT (UCP1) | Percent ambulatory time versus control (HFD-fed C57BL/6J mice; mouse, in vivo) | Increase of locomotor movement (direct locomotion) (HFD-fed C57BL/6J mice; versus control) | Increase of mean energy expenditure (EE) (HFD-fed C57BL/6J mice; versus control, listed as 4-(5-(4-hydroxyphenyl)-1-methyl-1h-pyrazol-3-yl)-5-methoxy-2-(3-methylbut-2-en-1))
1 | COc1cc(O)c(CC=C(C)C)c(O)c1C(=O)/C=C/c1ccc(O)cc1 [XN, xanthohumol] | dose-dependent and milder than that of protonophore FCCP | decreased | no significant changes | not | increased | increased | 4-8% | – | – | – | –
2 | COc1cc(O)c(CC=C(C)C)c(O)c1-c1cc(-c2ccc(O)cc2)n(C)n1 [XP, 4-(5-(4-hydroxyphenyl)-1-methyl-1H-pyrazol-3-yl)-5-methoxy-2-(3-methylbut-2-en-1-yl)benzene-1,3-diol] | dose-dependent and milder than that of protonophore FCCP | – | – | – | increased | increased | up to 27% | no effect | increased | 75-135% | 20-27%
